# Test results published in US8133294B2, “Buffered amino alcohol solutions of N-(n-butyl)thiophosphoric triamide (NBPT) and urea fertilizers using such solutions as urease inhibitors” (Whitehurst Associates, Inc., priority 2009, dated 2012).
# Entries after “also recorded” stand apart in the source; their conditions may differ.
# Assays:
# [1] = background description; cited from earlier work
# [2] = Stability of NBPT in the buffered mixture on standing (yellowing, hydrogen sulfide odor as signs of decomposition); assay type: physicochemical
# [3] = Sulfide test: NBPT containing buffered mixture added to copper (II) containing ARBORITE Binder 75, colour change; assay type: physicochemical
# Protocol: As another example of the instability of this formulation, the buffered NBPT containing mixture was added to ARBORITRE® Binder 75 which is an ethanolamine borate containing copper (II) ions at about 0.75%.
# […]; The NBPT containing buffered mixture was then added to ARBORITE® Binder 75.
# [4] = Solubility limit of NBPT in buffered amino alcohol/carboxylic acid mixture; assay type: physicochemical; settings: 12% NBPT in MEA/acetic acid buffered mixture, pH 9.2 (Example 3)
smiles,measurement,setting,value
"CCCCNP(N)(N)=S [NBPT, N-(n-butyl)-thiophosphoric triamide]",Hydrolytic and thermal stability,[1],undergoes hydrolysis and is thermally unstable
same,Decomposition of NBPT in the buffered mixture over time,"[2]; 12% NBPT in MEA/acetic acid buffered mixture, pH 9.2 (Example 3)",no signs of yellowing were observed
same,Decomposition of NBPT in the buffered mixture over time,"[2]; MEA/acetic acid buffered mixture, pH 7.0 (Examples 1 and 2)",turned yellow over time and emitted an odor of hydrogen sulfide; also recorded: caused hydrolysis of the NBPT and released sulfides
same,Decomposition of NBPT in the buffered mixture over time,"[2]; TEA/acetic acid buffered mixture, pH 7.6 (Example 6)",displayed a tendency to yellow over time
same,Colour change on addition to ARBORITE Binder 75 (sulfides of copper (II)),"[3]; 20% NBPT in TEA/acetic acid buffered mixture, pH 7.6 (Example 6)",lost its characteristic blue color and appeared green
same,Colour change on addition to ARBORITE Binder 75 (sulfides of copper (II)),"[3]; 25% NBPT in MIPA/acetic acid buffered mixture, pH 9.0 (Example 13)",No reaction characteristic of the formation of sulfide salts of copper (II) was observed
same,Colour change on addition to ARBORITE Binder 75 (sulfides of copper (II)),"[3]; NBPT in MEA/acetic acid buffered mixture, pH 7.0 (Example 1)",immediately turned brown
same,Crystallization of the NBPT solution when chilled,[4],slight crystallization when chilled
